Assay results taken from patent US9334271B2, “Purine derivatives and their use in the treatment of disease” (Novarits AG, priority 2012, dated 2016).
Where two headings read alike, the source gives them in different places.

How the values were obtained:
recombinant human mTOR = recombinant human mTOR (Homo sapiens (Human), UniProt P42345); assay: Test 1: mTOR ATP-binding assay based on TR-FRET; conditions: GST-tagged truncated human mTOR, tracer-314, TR-FRET
Procedure: Test 1: mTOR ATP-Binding Assay Based on TR-FRET for Recombinant Human mTOR
2. The final volume of the assay is 10 μL and the order of addition is as follows:
50 nL of compounds dilution;
Incubated for 60 minutes at room temperature.
TR-FRET measured in Biotek Synergy2 reader at: • Excitation 340 nm/emission 665 nm • Excitation 340 nm/emission 620 nm
The following final concentrations are used:
1 nM Europium anti-GST antibody;
The following controls are used:
3. IC50 determinations may be performed as follows:
The Emission ratio is converted to percentage of inhibition for each compound concentration. IC50 values are calculated by fitting a sigmoidal dose-response curve to a plot of assay readout over compound concentration. All fits and analysis are performed with the program XLfit4 (ID Business Solutions, Guildford, UK).

H4 mCherry-GFP-LC3 cells = assay: Test 3: Autophagy assay (mCherry-GFP-LC3 reporter, high-content imaging); format: cell-based, human; conditions: 16-18 h treatment, mCherry-positive LC3 puncta/cell; for EC50: Homo sapiens
Text: Autophagy is a catabolic pathway that degrades bulk cytosol in lysosomal compartments enabling amino acids and fatty acids to be recycled. One of the key regulators of autophagy is the mammalian target of rapamycin (mTOR), a conserved serine/threonine kinase which suppresses the initiation of the autophagic process when nutrients, growth factors and energy are available. To quantify autophagy induction by mTOR inhibitors, we use a mCherry-GFP-LC3 reporter which is amenable to retroviral delivery into mammalian cells, stable expression and analysis by fluorescence microscopy.
The amino acid sequence of the mCherry-GFP-LC3 construct is shown below (SEQ ID NO: 1). The mCherry sequence is underlined, GFP sequence is in bold and LC3A sequence is boxed.
Described hereinafter is an imaging protocol and image recognition algorithm to visualize and measure changes in the autophagic pathway.
Quantification of Autophagy Using High-Content Imaging and Analysis
• 1. Day 0: Cell plating. Subconfluent H4 mCherry-GFP-LC3 cells are harvested by trypsinization, resuspended in growth medium, and counted (H4 cells: Human neuroglioma cell line (ATCC)). A cell suspension of 66′000 cells/mL is prepared and 30 μL are added into the wells of a 384-well plate using an electronic multichannel pipette. […] The cell plates are briefly spun down and placed at 37° C. and 5% CO2. • 2. Day 1: Compound treatment. Compound dose responses are prepared in DMSO. The dose responses are then diluted 1:50 in medium. 10 ul of the diluted compound is added to 30 ul of cells, yielding a final 1:200 dilution of the original compound and final of 0.5% DMSO. Compound-treatments are performed in triplicates. The 384-well plates are placed at 37° C. and 5% CO2. Compound treatment is performed for 16-18 h (see Note 1). • 3. Day 2: Cell fixation. Cells are fixed by adding 10 μL/well 5× concentrated Mirsky's fixative supplemented with 25 μg/mL Hoechst33342. […] The 384-well plate is briefly spun down and incubated for 1 h at room temperature. Cells are then washed using a 384-well plate washer using a protocol which aspirates the volume down to 10 μL/well before dispensing 100 μL/well 1×TBS. Aspiration and dispensing steps are repeated 4 times and a final volume of 100 μL/well is left. The plate is sealed using an adhesive PCR foil. • 4. Imaging. The bottom of the plate is cleaned with 70% ethanol and then imaged using the InCell 1000 automated epifluorescence microscope. 20× magnification is used and 4 different areas (fields) are imaged per well, this typically captures a total of around 400 cells per well. Hoechst33342 images are acquired using an excitation of 360 nm (D360_40x filter), an emission of 460 nm (HQ460_40M filter) and an exposure time of 150 ms. GFP images are acquired using an excitation of 475 nm (S475_20x filter), an emission of 535 nm (HQ535_50M filter) and an exposure time of 1 s. mCherry images are acquired using an excitation of 535 nm (HQ535_50x filter), an emission of 620 nm (HQ620_60M filter) and an exposure time of 1 s. A quadruple band pass mirror is used for all images. • 5. Image analysis. The InCell Analysis software is used to analyze the images using the Multi Target Analysis algorithm. First, nuclei are detected in the Hoechst33342 image using top-hat segmentation and a minimal nuclear area of 50 μm^2. Cells are defined using a collar of 10 μm around the nuclei. Second, puncta (organelles) are identified in the mCherry image inside the cells using multi-top-hat segmentation. Third, the mask of the mCherry puncta is transferred onto the GFP image. Fourth, the GFP fluorescence intensity inside the mCherry puncta mask is measured (reference intensity). • 6. The ‘organelles’ parameter reflects mCherry-positive puncta of the mCherry-GFP-LC3 reporter and is used to calculate ‘LC3 puncta/cell’. […]

[1] = system: cellular mTOR kinase activity (phosphorylation of Thr 389 of S6K1) in TSC1-/- MEFs; assay: Test 2: Cellular mTOR assay (P-P70S6K T389 Surefire); format: cell-based; conditions: Mus musculus
Procedure: Test 2: Cellular mTOR Assay
30 μl are added per well to a 384 well-plate using a Multidrop instrument (Thermo scientific), resulting in 4000 cells/well. The plates are incubated at 37° C./5% CO2 for 20 hours (to allow for settling and adherance to the surface).
Eight 3-fold serial dilutions of test-compounds (beginning at 1.8 mM) are prepared in 90% DMSO and compiled on 384 well master plates (Greiner). A pan-pPI3K/mTOR inhibitor (0.8 mM of 8-(6-methoxy-pyridin-3-yl)-3-methyl-1-(4-piperazin-1-yl-3-trifluoromethyl-phenyl)-1,3-dihydro-imidazo[4,5-c]quinolin-2-one in 90% DMSO) is added to the wells for the low control. 90% DMSO is added to the wells for the high controls. Compounds are provided as 250 nl shots (Hummingbird) in 384 well-polypropylene microplates (compound plates). 50 μl of growth medium is added to the compound plates (dilution 1:200) with the Multidrop. After shaking (1 min at 2000 rpm), 10 μl of the first dilution is then transferred to the cell plate with a Matrix Plate Mate 2×3 pipettor (final dilution 1:4). After 1 hour of treatment, medium is removed from the plate and 20 μl of Surefire lysis buffer is added per well with the Multidrop.
Cell lysates are frozen for 15 minutes, thawed with shaking and transferred to the experimental 384 well-Proxiplate (5 μl/well) for the P-P70S6K (T389) Surefire assay (Perkin Elmer #TGR70S50). The first mix is composed of the reaction buffer (containing the specific antibody), the activation buffer and the acceptor beads (40 vol, 10 vol and 1 vol respectively). 5 μl per well is added to the lysates with a Zephyr® SPE Workstation (Caliper Life Sciences) and incubated for 2 hours with shaking at room temperature. After this incubation time, the second mix of dilution buffer and donor beads (20 vol and 1 vol respectively) is added to the plate with the same instrument (2 μl/well). After 2 hours, the plate can be read with an EnVision® Multilabel Reader (Perkin Elmer). Since the beads are light sensitive, their transfer and incubation is executed in a dark room (greenlight).
The raw data is used to generate dose response curves for test compounds and IC50 values calculated therefrom.

[2] = TSC1-/- MEFs, 1 hour treatment, P-P70S6K (T389), read-out: Test 2: T389 cellular assay IC50
[3] = 1 h, read-out: Test 2: T389 cellular assay IC50 (nM)

recombinant human mTOR, sequence (P42345 1360-2549): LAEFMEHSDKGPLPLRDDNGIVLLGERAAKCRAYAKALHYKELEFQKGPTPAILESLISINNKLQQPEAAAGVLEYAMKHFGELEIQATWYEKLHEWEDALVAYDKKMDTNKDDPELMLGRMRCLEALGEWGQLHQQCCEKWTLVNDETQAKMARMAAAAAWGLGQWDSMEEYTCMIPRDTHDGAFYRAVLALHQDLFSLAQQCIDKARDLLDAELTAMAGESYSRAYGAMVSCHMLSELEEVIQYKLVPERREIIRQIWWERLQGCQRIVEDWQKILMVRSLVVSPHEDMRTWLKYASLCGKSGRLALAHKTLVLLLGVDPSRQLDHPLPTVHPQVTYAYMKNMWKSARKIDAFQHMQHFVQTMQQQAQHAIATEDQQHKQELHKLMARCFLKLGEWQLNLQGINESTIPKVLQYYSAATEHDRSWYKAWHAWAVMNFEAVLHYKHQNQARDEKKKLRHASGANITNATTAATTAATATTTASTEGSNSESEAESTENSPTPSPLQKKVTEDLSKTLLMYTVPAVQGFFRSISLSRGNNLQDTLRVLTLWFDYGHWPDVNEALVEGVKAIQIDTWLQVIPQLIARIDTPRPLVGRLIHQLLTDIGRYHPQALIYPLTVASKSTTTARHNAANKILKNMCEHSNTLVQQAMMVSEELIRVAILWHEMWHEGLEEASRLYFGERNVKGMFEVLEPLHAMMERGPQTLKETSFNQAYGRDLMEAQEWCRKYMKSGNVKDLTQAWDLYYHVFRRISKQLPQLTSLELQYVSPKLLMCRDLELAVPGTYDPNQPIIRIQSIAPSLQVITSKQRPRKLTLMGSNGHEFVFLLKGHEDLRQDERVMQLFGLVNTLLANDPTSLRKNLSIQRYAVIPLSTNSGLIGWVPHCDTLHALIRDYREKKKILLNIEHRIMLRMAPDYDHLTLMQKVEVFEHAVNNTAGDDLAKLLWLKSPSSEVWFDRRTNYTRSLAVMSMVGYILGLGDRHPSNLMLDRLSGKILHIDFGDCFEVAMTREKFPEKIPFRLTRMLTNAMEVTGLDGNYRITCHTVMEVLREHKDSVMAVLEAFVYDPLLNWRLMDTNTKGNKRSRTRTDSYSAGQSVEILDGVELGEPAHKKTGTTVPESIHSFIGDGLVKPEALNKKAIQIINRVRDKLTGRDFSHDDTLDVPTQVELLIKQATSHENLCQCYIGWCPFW

| Structure (SMILES) | IC50 (recombinant human mTOR) [nM] | EC50 (H4 mCherry-GFP-LC3 cells) [nM] | IC50 [1, 2] [nM] | IC50 [1, 3] [nM] | Test 3: Autophagy EC50 (nM) (H4 mCherry-GFP-LC3 cells) |
| --- | --- | --- | --- | --- | --- |
| C[C@@H]1COCCN1c1nc(N2CCOC[C@@H]2C)nc2[nH]c(-c3ccccn3)nc12 [Example 7, 2-((S)-3-Methyl-morpholin-4-yl)-6-((R)-3-methyl-morpholin-4-yl)-8-pyridin-2-yl-9H-purine] | 184 | 1320 | 997 | – | – |
| C[C@H]1COCCN1c1nc(N2CCOC[C@@H]2C)c2nc(-c3cc[nH]n3)[nH]c2n1 [Example 10, 2,6-Bis-((S)-3-methyl-morpholin-4-yl)-8-(1H-pyrazol-3-yl)-9H-purine] | 343 | 1440 | 135 | – | – |
| C[C@@H]1COCCN1c1nc(N2CCC(C(F)(F)F)CC2)nc2[nH]c(-c3cccc4[nH]ccc34)nc12 [Example 22, 8-(1H-Indol-4-yl)-6-((R)-3-methyl-morpholin-4-yl)-2-(4-trifluoromethyl-piperidin-1-yl)-9H-purine] | 1510 | 1680 | – | 1040 | – |
| C[C@@H]1COCCN1c1nc(N2CCOC[C@H]2C)c2nc(-c3cc(CO)cc4[nH]ccc34)[nH]c2n1 [Example 6, {4-[2,6-Bis-((R)-3-methyl-morpholin-4-yl)-9H-purin-8-yl]-1H-indol-6-yl}-methanol] | 66 | 423 | – | 1180 | – |
| C[C@@H]1COCCN1c1nc(N2CCOC[C@H]2C)c2nc(-c3cnc(N)nc3)[nH]c2n1 [Example 29, 5-[2,6-Bis-((R)-3-methyl-morpholin-4-yl) 9H-purin-8-yl]-pyrimidin-2-yl-amine] | 1310 | 3610 | – | 498 | – |
| C[C@H]1COCCN1c1nc(N2CCOC[C@@H]2C)c2nc(-c3ccc(-c4ncc[nH]4)cc3)[nH]c2n1 [Example 30, 8-[4-(1H-Imidazol-2-yl)-phenyl]-2,6-bis-((S)-3-methyl-morpholin-4-yl)-9H-purine] | 364 | 1460 | 1140 | – | – |
| C[C@@H]1COCCN1c1nc(N2CCOC[C@H]2C)c2nc(-c3ccccn3)[nH]c2n1 [Example 1, 2,6-Bis-((R)-3-methyl-morpholin-4-yl)-8-pyridin-2-yl-9H-purine] | 139 | 351 | 1010 | – | – |
| COc1cc(-c2nc3c(N4CCOC[C@H]4C)nc(N4CCOC[C@@H]4C)nc3[nH]2)c2cc[nH]c2c1 [Example 31, 8-(6-Methoxy-1H-indol-4-yl)-2-((S)-3-methyl-morpholin-4-yl)-6-((R)-3-methyl-morpholin-4-yl)-9H-purine] | 28 | 145 | – | 71 | – |
| C[C@@H]1COCCN1c1nc(N2CCOC[C@H]2C)c2nc(-c3cc[nH]n3)[nH]c2n1 [Example 11, 2,6-Bis-((R)-3-methyl-morpholin-4-yl)-8-(1H-pyrazol-3-yl)-9H-purine] | 385 | 1520 | 190 | – | – |
| C[C@H]1COCCN1c1nc(N2CCOC[C@@H]2C)c2nc(-c3ccccn3)[nH]c2n1 [Example 8, 2,6-Bis-((S)-3-methyl-morpholin-4-yl)-8-pyridin-2-yl-9H-purine] | 1030 | – | 806 | – | n.m. |
| C[C@@H]1COCCN1c1nc(N2CCCOCC2)nc2[nH]c(-c3cccc4[nH]ccc34)nc12 [Example 3, 8-(1H-Indol-4-yl)-6-((R)-3-methyl-morpholin-4-yl)-2-[1,4]oxazepan-4-yl-9H-purine] | 164 | 422 | – | 76 | – |
| CCC[C@@H]1COCCN1c1nc(N2CCOC[C@H]2C)c2nc(-c3cccc4[nH]ccc34)[nH]c2n1 [Example 12, 8-(1H-Indol-4-yl)-6-((R)-3-methyl-morpholin-4-yl)-2-((R)-3-propyl-morpholin-4-yl)-9H-purine] | 194 | 674 | – | 534 | – |
| C[C@H]1COCCN1c1nc(N2CCOC[C@@H]2C)c2nc(-c3ccc(N)nc3)[nH]c2n1 [Example 27, 5-[2,6-Bis-((S)-3-methyl-morpholin-4-yl)-9H-purin-8-yl]-pyridin-2-ylamine] | 2410 | 4740 | – | 1190 | – |
| C[C@@H]1COCCN1c1nc(N2CCN(C3COC3)CC2)nc2[nH]c(-c3cccc4[nH]ccc34)nc12 [Example 18, 8-(1H-Indol-4-yl)-6-((R)-3-methyl-morpholin-4-yl)-2-(4-oxetan-3-yl-piperazin-1-yl)-9H-purine] | 91 | – | 249 | – | n.m. |
| COC(=O)c1cc(-c2nc3c(N4CCOC[C@H]4C)nc(N4CCOC[C@H]4C)nc3[nH]2)c2cc[nH]c2c1 [Example 32, 4-[2,6-Bis-((R)-3-methyl-morpholin-4-yl)-9H-purin-8-yl]-1H-indole-6-carboxylic acid methyl ester] | 533 | > 6000 | – | 1120 | – |
